Assay results taken from PubChem BioAssay (NCI).
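Protocol summary: plate cells (96-well), add compound at 5 concentrations, incubate 48 h, interpolate endpoints linearly. TGI: concentration producing complete growth inhibition.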

Key:
Assay in all cases: inhibition of tumour cell growth, NCI panel, 48 h
DU-145 prostate = tested on: DU-145 prostate
RPMI-8226 leukemia = tested on: RPMI-8226 leukemia
SF-295 CNS = tested on: SF-295 CNS
HOP-92 NSCLC = tested on: HOP-92 NSCLC
UACC-62 melanoma = tested on: UACC-62 melanoma
OVCAR-3 ovarian = tested on: OVCAR-3 ovarian
CCRF-CEM leukemia = tested on: CCRF-CEM leukemia
KM12 colon = tested on: KM12 colon
CAKI-1 renal = tested on: CAKI-1 renal
SW-620 colon = tested on: SW-620 colon
OVCAR-8 ovarian = tested on: OVCAR-8 ovarian
RXF 393 renal = tested on: RXF 393 renal
K-562 leukemia = tested on: K-562 leukemia
MOLT-4 leukemia = tested on: MOLT-4 leukemia

SMILES	TGI (DU-145 prostate) [µM]	TGI (RPMI-8226 leukemia) [µM]	TGI (SF-295 CNS) [µM]	TGI (HOP-92 NSCLC) [µM]	TGI (UACC-62 melanoma) [µM]	TGI (OVCAR-3 ovarian) [µM]	TGI (CCRF-CEM leukemia) [µM]	TGI (KM12 colon) [µM]	TGI (CAKI-1 renal) [µM]	TGI (SW-620 colon) [µM]	TGI (OVCAR-8 ovarian) [µM]	TGI (RXF 393 renal) [µM]	TGI (K-562 leukemia) [µM]	TGI (MOLT-4 leukemia) [µM]
NC(Cc1ccccc1)C(=O)NC(Cc1ccccc1)NC(=O)C(Cc1c[nH]c2ccccc12)C(=O)O (centres undefined)	> 100	> 100	> 100	> 100	> 100	> 100	> 100	> 100	> 100	> 100	> 100	> 100	–	–
CCN(CC)CCCNC(=O)c1cc(-c2nccn2C)nc2ccccc12	> 100	> 100	–	> 100	> 100	–	> 100	> 100	> 100	> 100	> 100	> 100	> 100	> 100
CC(N)/C(N)=N/O (centres undefined)	> 100	> 100	> 100	> 100	> 100	> 100	> 100	> 100	> 100	> 100	> 100	> 100	> 100	–
C[C@]12c3c4cc(NC(=O)C(=O)NCc5ccc(-c6ccccn6)nc5)cc3Oc3cc(NC(=O)C(=O)NCc5ccc(-c6ccccn6)nc5)cc(c31)OC1C=C(NC(=O)C(=O)NCc3ccc(-c5ccccn5)nc3)C=C(O4)C12 (some centres undefined)	98.6	> 100	> 100	–	79.1	> 100	> 100	> 100	93.4	> 100	> 100	> 100	> 100	> 100
COc1cc(OCCN(C)C)c2[nH]c(C(=O)N3CC(CCl)c4ccc(N)cc43)cc2c1 (centres undefined)	1.02	0.271	–	0.617	0.567	0.607	0.0684	0.126	–	–	–	0.033	> 100	0.0522
Cc1ccc2nc(-c3ccccc3)cc(=O)n2c1	> 100	> 100	> 100	> 100	> 100	> 100	> 100	> 100	–	> 100	> 100	> 100	> 100	> 100
C=CCNC(=S)N/C=C(\C#N)C(N)=O	> 100	> 100	> 100	–	> 100	> 100	> 100	> 100	> 100	> 100	> 100	> 100	> 100	> 100
N=c1oc2ccccc2cc1C(=O)NC12CC3CC(CC(C3)C1)C2	> 84.3	31.1	67.4	> 100	62.6	37.5	17.2	52.4	–	> 100	> 100	24.2	72.1	10.2
CON(C)C(=O)C(C)N(Cc1ccccc1)Cc1ccccc1 (centres undefined)	> 100	> 100	> 100	> 100	> 100	> 100	> 100	> 100	–	> 100	> 100	> 100	> 100	> 100
COC(=O)[C@]1(C)CCC[C@@]2(C)C1CC[C@@]13C=C(C(C)C)[C@@H](CC1=O)CC23 (some centres undefined)	> 100	40.1	68.3	–	> 100	45.9	42.4	> 100	85.2	83.6	> 100	41.2	30.2	31
Nc1nc(Cl)cc(OCC2(CO)CC=CC2)n1	> 100	> 100	> 100	> 100	–	> 100	> 100	–	–	> 100	> 100	> 100	> 100	> 100
C[C@]12[C@@H]3CC[C@H]1[C@@H](O)C(=O)N2CC3	> 100	> 100	> 100	> 100	> 100	–	> 100	> 100	> 100	> 100	> 100	> 100	> 100	> 100
N#Cc1nc(-c2cnccn2)oc1N	> 100	> 100	–	> 100	> 100	–	> 100	> 100	> 100	> 100	> 100	> 100	> 100	> 100
O=[N+]([O-])c1ccc2nc(Nc3ccccc3)c(Nc3ccccc3)nc2c1	4.6	> 100	2.4	4.88	2.23	–	> 100	2.78	11.2	3.46	6.45	6.6	> 100	> 100
